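Each compound was tested at five concentrations against cells in 96-well plates for 48 hours. Abbreviation: GI50, concentration required for 50% inhibition of growth.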 The source made the active and inactive calls. Rule as the data show it: active = GI50 up to about 1.1 µM and inactive = higher.
Key:
Assay in all cases: inhibition of tumour cell growth, NCI panel, 48 h
[1] = test system: HCC 2998
[2] = test system: SF-268
[3] = test system: HCT-15
[4] = test system: UACC-257
[5] = test system: HCT-116
[6] = test system: NCI-H522
[7] = test system: NCI-H23
[8] = test system: MCF7
[9] = test system: OVCAR-5
[10] = test system: K562
[11] = test system: SK-MEL-28
[12] = test system: DU-145
[13] = test system: SNB-19
[14] = test system: TK-10
[15] = test system: Hs-578T
[16] = test system: SK-MEL-2
[17] = test system: A549
[18] = test system: SK-MEL-5
[19] = test system: BT-549
[20] = test system: SF-539
[21] = test system: UO-31
[22] = test system: CCRF-CEM
[23] = test system: HL-60
[24] = test system: MDA-MB-231
[25] = test system: COLO 205
[26] = test system: SF-295
[27] = test system: SR
[28] = test system: LOX IMVI
[29] = test system: NCI/ADR-RES
[30] = test system: MOLT-4
[31] = test system: SW-620
[32] = test system: OVCAR-8
[33] = test system: HOP-62
[34] = test system: EKVX
[35] = test system: SN12C
[36] = test system: 786-0
[37] = test system: OVCAR-3
[38] = test system: KM12
[39] = test system: MDA-MB-435
[40] = test system: RPMI-8226
[41] = test system: IGROV-1
[42] = test system: HT-29
[43] = test system: NCI-H460
[44] = test system: UACC-62
[45] = test system: MDA-N
[46] = test system: SNB-75
[47] = test system: ACHN
[48] = test system: PC-3
[49] = test system: RXF 393
[50] = test system: Malme-3M
[51] = test system: M14
[52] = test system: U-251
[53] = test system: CAKI-1
[54] = test system: T47D
[55] = test system: SK-OV-3
[56] = test system: A498
[57] = test system: NCI-H226
[58] = test system: OVCAR-4

In the case of `Cc1c2ccccc2cc2cccc[n+]12`, the GI50 [1] is reported as 15.2 µM (inactive), the GI50 [2] is reported as 10.4 µM (inactive) and the GI50 [3] is reported as over 100 µM. For the same compound, the GI50 [4] was 19.2 µM (inactive), the GI50 [5] was 37.2 µM (inactive) and the GI50 [6] was 12.9 µM (inactive). For the same compound, the GI50 [7] was 18.2 µM (inactive), the GI50 [8] was 57.7 µM (inactive) and the GI50 [9] was 56.6 µM (inactive). For the same compound, the GI50 [10] was 10.4 µM (inactive), the GI50 [11] was 25.7 µM (inactive) and the GI50 [12] was 61.4 µM (inactive). The GI50 [13] was 28.6 µM (inactive), the GI50 [14] was 39.8 µM (inactive) and the GI50 [15] was 25.6 µM (inactive). For the same compound, the GI50 [16] was 41.3 µM (inactive), the GI50 [17] was 6.82 µM (inactive) and the GI50 [18] was 27.4 µM (inactive). The GI50 [19] was 23.4 µM (inactive), the GI50 [20] was 32.1 µM (inactive) and the GI50 [21] was 10.6 µM (inactive). For the same compound, the GI50 [22] was 31.9 µM (inactive), the GI50 [23] was 29.3 µM (inactive) and the GI50 [24] was 37.7 µM (inactive). The GI50 [25] was 19.8 µM (inactive), the GI50 [26] was 34.8 µM (inactive) and the GI50 [27] was 12.6 µM (inactive). For the same compound, the GI50 [28] was 27.8 µM (inactive), the GI50 [29] was > 100 µM (inactive) and the GI50 [30] was 13 µM (inactive). For the same compound, the GI50 [31] was 8.34 µM (inactive), the GI50 [32] was 31.6 µM (inactive) and the GI50 [33] was 21.6 µM (inactive). The GI50 [34] was 4.72 µM (inactive), the GI50 [35] was 29.6 µM (inactive) and the GI50 [36] was 61.8 µM (inactive). For the same compound, the GI50 [37] was 24.4 µM (inactive), the GI50 [38] was 6.52 µM (inactive) and the GI50 [39] was 36 µM (inactive). For the same compound, the GI50 [40] was 18.7 µM (inactive), the GI50 [41] was 26.1 µM (inactive) and the GI50 [42] was 29.2 µM (inactive). The GI50 [43] was 35.2 µM (inactive), the GI50 [44] was 41.7 µM (inactive) and the GI50 [45] was 37.8 µM (inactive). For the same compound, the GI50 [46] was 21.9 µM (inactive), the GI50 [47] was 62.1 µM (inactive) and the GI50 [48] was 30 µM (inactive). For the same compound, the GI50 [49] was 23.3 µM (inactive) and the GI50 [50] was 11.3 µM (inactive).

`CCOC(=O)c1[nH]c2nc(SC)nc(Nc3ccccc3Cl)c2c1N` was tested, and the GI50 [1] was 27.4 µM (inactive), the GI50 [2] was 19.8 µM (inactive) and the GI50 [3] was 35.3 µM. The GI50 [51] was 37.8 µM (inactive), the GI50 [4] was 33.6 µM (inactive) and the GI50 [5] was 15.6 µM (inactive). For the same compound, the GI50 [6] was 16.8 µM (inactive), the GI50 [7] was 19.2 µM (inactive) and the GI50 [9] was 19.6 µM (inactive). The GI50 [52] was 13.9 µM (inactive), the GI50 [10] was 13.9 µM (inactive) and the GI50 [53] was 25.5 µM (inactive). The GI50 [11] was 31.3 µM (inactive), the GI50 [54] was 13.1 µM (inactive) and the GI50 [55] was 21.4 µM (inactive). For the same compound, the GI50 [12] was 23.2 µM (inactive), the GI50 [13] was 17.5 µM (inactive) and the GI50 [14] was 22.5 µM (inactive). For the same compound, the GI50 [15] was 20.1 µM (inactive), the GI50 [56] was 12.6 µM (inactive) and the GI50 [16] was 29 µM (inactive). For the same compound, the GI50 [57] was 15.3 µM (inactive), the GI50 [17] was 13.2 µM (inactive) and the GI50 [18] was 6.21 µM (inactive). The GI50 [19] was 20 µM (inactive), the GI50 [21] was 15.7 µM (inactive) and the GI50 [22] was 15.3 µM (inactive). The GI50 [24] was 16.6 µM (inactive), the GI50 [25] was 28.9 µM (inactive) and the GI50 [26] was 21 µM (inactive). For the same compound, the GI50 [28] was 11.8 µM (inactive), the GI50 [29] was 18.8 µM (inactive) and the GI50 [30] was 8.55 µM (inactive). The GI50 [31] was 27.2 µM (inactive), the GI50 [32] was 16 µM (inactive) and the GI50 [33] was 18.3 µM (inactive). The GI50 [35] was 36.2 µM (inactive), the GI50 [36] was 20.2 µM (inactive) and the GI50 [37] was 20.7 µM (inactive). The GI50 [38] was 31.3 µM (inactive), the GI50 [39] was 31.6 µM (inactive) and the GI50 [40] was 15.2 µM (inactive). For the same compound, the GI50 [41] was 26.9 µM (inactive), the GI50 [42] was 11.7 µM (inactive) and the GI50 [43] was 11.6 µM (inactive). For the same compound, the GI50 [44] was 16.6 µM (inactive), the GI50 [45] was 30.5 µM (inactive) and the GI50 [46] was 16.2 µM (inactive). The GI50 [47] was 18.3 µM (inactive), the GI50 [48] was 15.7 µM (inactive) and the GI50 [49] was 12.4 µM (inactive). The GI50 [50] was 24.3 µM (inactive) and the GI50 [58] was 14.6 µM (inactive).
